The results in this text go back to US20260317319A1, “NOVEL ERGOLINES AND METHODS OF TREATING MOOD DISORDERS” (Gilgamesh Pharma Inc., priority 2023, published 2026).

For data set [1], the target named is T1, 5-HT2A receptor (Homo sapiens, UniProt P28223). Put plainly: cell-based. It counts as cell-based. Further details: expressed in transfected cells; host or cells: HEK293, stably transfected. The settings on record: Ca2+ flux; for Emax: HEK293, agonist, HEK293, max dose, read-out: 5-HT2A % Act @ Max Dose; for EC50: agonist, HEK293. The method in brief:
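Cells plated and incubated overnight at 37 °C, 5% CO2; Fluo-4 Direct dye with probenecid (final 2.5 mM) added, 50 min at 37 °C; test compounds transferred and Ca2+ signal recorded. HEK293 hosts for 5-HT2A/2B, CHO + Gα15 for 5-HT1A.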

For the next data set, the target named is T2, 5-HT1A receptor (Homo sapiens, UniProt P08908).
T2 construct: expressed in transfected cells; host or cells: CHO cells, stably transfected
T2 sequence (P08908 1-422): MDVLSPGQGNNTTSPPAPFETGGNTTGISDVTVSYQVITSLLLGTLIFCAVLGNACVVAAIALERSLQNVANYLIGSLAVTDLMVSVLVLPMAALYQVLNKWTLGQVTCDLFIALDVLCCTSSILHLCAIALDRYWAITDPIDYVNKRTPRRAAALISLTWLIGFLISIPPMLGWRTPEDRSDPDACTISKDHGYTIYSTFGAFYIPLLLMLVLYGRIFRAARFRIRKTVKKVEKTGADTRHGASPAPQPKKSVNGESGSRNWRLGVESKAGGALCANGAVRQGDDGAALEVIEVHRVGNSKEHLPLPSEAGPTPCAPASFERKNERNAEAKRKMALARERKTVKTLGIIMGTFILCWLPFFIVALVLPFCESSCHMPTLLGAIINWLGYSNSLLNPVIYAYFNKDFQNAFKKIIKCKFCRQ
In words: cell-based. The conditions noted are these: agonist, Ca2+ flux; for Emax: CHO, CHO cells with Gα15, max dose, read-out: 5-HT1A % Act @ Max Dose; for EC50: CHO cells with Gα15. The method in brief: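 Receptor agonism was assessed as intracellular calcium mobilization in stably transfected cells, with CHO cells additionally carrying Gα15 for the 5-HT1A readout. Calcium was monitored with Fluo-4 Direct dye.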

Data set [2] in a line: in vitro. Format: in vitro ADME, human. The conditions noted are these: human, microsomes, HLM 0.50 mg/mL, NADPH 1 mM, 1 μM compound, pH 7.4, 37° C., 60 min; for microsomal CLint: read-out: Intrinsic clearance (Clint); for half-life: read-out: half-life (t1/2).
The nature of data set [3]: in vitro. It counts as in vitro ADME, rat. The settings on record: rat, microsomes, RLM (male Sprague-Dawley) 0.50 mg/mL, NADPH 1 mM, 1 μM compound, pH 7.4, 37° C., 60 min; for microsomal CLint: read-out: Intrinsic clearance (Clint); for half-life: read-out: half-life (t1/2). From the text:
RLM Stability Pooled RLM from male Sprague-Dawley rats (Xenotech R1000) were used.

The nature of data set [4]: in vitro. Format: in vitro ADME, mouse. The settings on record: mouse, microsomes, MLM (male CD-1) 0.50 mg/mL, NADPH 1 mM, 1 μM compound, pH 7.4, 37° C., 60 min; for microsomal CLint: read-out: Intrinsic clearance (Clint); for half-life: read-out: half-life (t1/2). From the text:
MLM Stability Pooled MLM from male CD-1 mice (BIOIVT M00501) were used.

The next data set has as its target T3, 5-HT2C receptor (Homo sapiens, UniProt P28335).
T3 sequence (P28335 33-458): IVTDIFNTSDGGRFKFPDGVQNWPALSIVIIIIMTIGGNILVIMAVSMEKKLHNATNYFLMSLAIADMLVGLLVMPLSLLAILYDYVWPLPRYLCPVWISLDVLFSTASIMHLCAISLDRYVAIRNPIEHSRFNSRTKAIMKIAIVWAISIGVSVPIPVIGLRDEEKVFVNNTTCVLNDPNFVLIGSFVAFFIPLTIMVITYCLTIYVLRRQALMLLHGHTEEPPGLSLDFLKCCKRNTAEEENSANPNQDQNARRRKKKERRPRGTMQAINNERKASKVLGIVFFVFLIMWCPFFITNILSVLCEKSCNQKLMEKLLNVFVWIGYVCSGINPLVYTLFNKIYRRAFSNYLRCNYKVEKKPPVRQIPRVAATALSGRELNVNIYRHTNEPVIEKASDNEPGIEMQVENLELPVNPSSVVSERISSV
Put plainly: Ca2+ flux functional assay at 5-HT2C (WuXi 5-HT2C protocol). Format: cell-based. Further details: expressed in transfected cells. The settings on record: for Emax: agonist, tested using WuXi 5-HT2C protocol, max dose, read-out: 5-HT2C % Act @ Max Dose (* WuXi protocol). Here is the method:
Disclosed compounds were tested for agonist activity at several serotonin receptor subtypes (5-HT2A, […], 5-HT2C, and 5-HT1A) using Ca^2+ flux functional assays and the 5-HT1B receptor using a cAMP accumulation assay, with the results summarized in Table 4. […] Potent agonist activity was also observed at the other serotonin receptors tested, although the selectivity profile among the receptors varied across compounds. […] However, at the same time, the N-propyl compounds were more efficacious agonists at 5-HT2B than the corresponding N-methyl compounds. The selectivity of disclosed compounds for 5-HT2A over 5-HT2C and 5-HT1A was less predictable and varied widely across compounds. […] An azetidinyl amide substituent tended to increase potency at 5-HT1A relative to 5-HT2A.
Functional Assays at 5-HT2A, 5-HT2B, and 5-HT1A. Agonist activity at 5-HT2A, 5-HT2B, 5HT2C and 5-HT1A receptors was determined using a FLIPR Ca^2+ flux assay at WuXi AppTec (Hong Kong) Limited according to their standard protocols. Briefly, stably transfected cells expressing the receptor of interest and Gα15 in the case of 5-HT1A (HEK293 for 5-HT2A and 5-HT2B; CHO cells for 5-HT1A) were grown and plated in a 384 well plate and incubated at 37° C. and 5% CO2 overnight. A solution of 250 mM probenecid in 1 mL FLIPR assay buffer was prepared fresh. This was combined with a fluorescent dye (Fluo-4 Direct™) to make a final assay concentration of 2.5 mM. Compounds were diluted 1:3.16 for 10 points and 750 nL was added to a 384 well compound plate using ECHO along with 30 μL assay buffer. The fluorescent dye was then added to the assay plate along with assay buffer to a final volume of 40 μL. The cell plate was incubated for 50 min at 37° C. and 5% CO2 and placed into the FLIPR Tetra along with the compound plate. 10 μL of references and compounds were then transferred from the compound plate into the cell plate and the fluorescent signal was read.

Data set [5] has as its target T4, 5-HT2B receptor (Homo sapiens, UniProt P41595).
T4 construct: expressed in transfected cells; host or cells: HEK293, stably transfected
Put plainly: 5-HT2B receptor radioligand binding ([3H]LSD). The conditions noted are these: read-out: 5-HT2B Receptor Ki.

In data set [6] the target is T4, 5-HT2B receptor. In words: cell-based. It counts as cell-based. The settings on record: Ca2+ flux; for Emax: HEK293, agonist, HEK293, max dose, read-out: 5-HT2B % Act @ Max Dose; for EC50: agonist, HEK293. The method in brief: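 FLIPR Tetra fluorescence read-out of calcium flux after compound addition. Receptor-expressing stable lines were used (HEK293 for 2A/2B; CHO with Gα15 for 1A), dye-loaded with Fluo-4 Direct and 2.5 mM final probenecid, 50 min at 37 °C.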

Data set [7] addresses T1, 5-HT2A receptor. In words: biochemical. The conditions noted are these: [3H]ketanserin 1 nM; HEK293 stable cell line; 1 h, 25 °C. Further details: expressed in transfected cells; host or cells: HEK293, stably transfected. It counts as binding. Put shortly:
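Affinity was measured in radioligand binding experiments using [^3H]ketanserin as the labelled ligand, following methods adapted from published procedures.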

Where two headings read alike, the source gives them in different places. Bounds are passed on as bounds.

T1 sequence (P28223 whole entry): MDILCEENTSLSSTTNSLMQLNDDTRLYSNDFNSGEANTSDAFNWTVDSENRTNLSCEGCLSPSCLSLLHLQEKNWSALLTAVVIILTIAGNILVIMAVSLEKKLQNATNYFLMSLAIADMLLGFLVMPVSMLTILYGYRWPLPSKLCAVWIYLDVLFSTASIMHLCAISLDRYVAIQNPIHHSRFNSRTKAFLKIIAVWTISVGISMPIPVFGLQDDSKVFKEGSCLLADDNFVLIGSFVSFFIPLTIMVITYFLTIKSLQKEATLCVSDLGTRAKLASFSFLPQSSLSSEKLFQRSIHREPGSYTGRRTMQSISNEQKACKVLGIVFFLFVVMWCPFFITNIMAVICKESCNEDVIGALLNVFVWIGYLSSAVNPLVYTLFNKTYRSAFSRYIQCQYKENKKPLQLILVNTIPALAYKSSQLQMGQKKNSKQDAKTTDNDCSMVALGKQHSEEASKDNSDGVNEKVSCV
T4 sequence (P41595 whole entry): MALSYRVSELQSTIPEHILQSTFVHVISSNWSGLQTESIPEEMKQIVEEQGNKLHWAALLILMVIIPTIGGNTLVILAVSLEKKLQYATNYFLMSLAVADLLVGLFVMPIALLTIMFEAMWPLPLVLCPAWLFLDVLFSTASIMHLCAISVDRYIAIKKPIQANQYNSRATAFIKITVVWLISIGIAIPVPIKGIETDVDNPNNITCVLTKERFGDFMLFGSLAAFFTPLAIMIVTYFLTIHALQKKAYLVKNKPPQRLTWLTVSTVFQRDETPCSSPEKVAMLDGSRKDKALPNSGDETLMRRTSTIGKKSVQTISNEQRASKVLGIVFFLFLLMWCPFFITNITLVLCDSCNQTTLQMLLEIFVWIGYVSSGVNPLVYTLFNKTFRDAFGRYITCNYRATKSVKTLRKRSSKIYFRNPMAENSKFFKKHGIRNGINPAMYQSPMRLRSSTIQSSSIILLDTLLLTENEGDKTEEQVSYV

For the compound `CN(C)C(=O)[C@@H]1C=C2c3cccc4[nH]cc(c34)C[C@H]2N(Cc2ccccc2)C1` [Compound 102, (6aR,9R)-7-benzyl-N,N-dimethyl-4,6,6a,7,8,9-hexahydroindolo[4,3-fg]quinoline-9-carboxamide], the Emax was determined as 65.2% at 5-HT2A receptor [1], 90.1% at 5-HT1A receptor, 76.6% on 5-HT2C receptor and 5.86% on 5-HT2B receptor [6]. Besides, the EC50 is 155 nM on 5-HT2A receptor [1], 26200 nM at 5-HT1A receptor, 685 nM on 5-HT2C receptor and more than 10000 nM on 5-HT2B receptor [6]. Moreover, the microsomal CLint came out at 16.9 µL/min/mg in the data set “in vitro [2]”, 134 µL/min/mg in “in vitro [3]” and 111 µL/min/mg in “in vitro [4]”. The half-life amounted to 82 min in the data set “in vitro [2]”, 10.3 min in the data set “in vitro [3]” and 12.5 min in “in vitro [4]”. For the same compound, the Ki at 5-HT2B receptor [5] came to 170 nM; at 5-HT2A receptor [7] it was 10.8 nM.
As for `CCN(C)C(=O)[C@@H]1C=C2c3cccc4[nH]cc(c34)C[C@H]2N(Cc2cccc(OC)c2)C1` [Compound 92, (6aR,9R)—N-ethyl-7-(3-methoxybenzyl)-N-methyl-4,6,6a,7,8,9-hexahydroindolo[4,3-fg]quinoline-9-carboxamide], the Emax at 5-HT2A receptor [1] came out at 53.8%; at 5-HT1A receptor it was 21.6%; on 5-HT2C receptor, 12.5%; at 5-HT2B receptor [6], 0.48%. The EC50 is 793 nM at 5-HT2A receptor [1], more than 100000 nM at 5-HT1A receptor, more than 10000 nM on 5-HT2C receptor and more than 10000 nM at 5-HT2B receptor [6]. In addition, the figures for the microsomal CLint in the data set “in vitro [2]”, in the data set “in vitro [3]” and in “in vitro [4]” were 140 µL/min/mg, 278 µL/min/mg and 321 µL/min/mg, respectively. Moreover, the half-life was 9.9 min in the data set “in vitro [2]”, 5 min in the data set “in vitro [3]” and 4.3 min in “in vitro [4]”. In addition, the values for the Ki at 5-HT2B receptor [5] and at 5-HT2A receptor [7] were 1950 nM and 11.1 nM, respectively.
`CCN(C)C(=O)[C@@H]1C=C2c3cccc4[nH]cc(c34)C[C@H]2N(CC2CCCC2)C1` [Compound 103, (6aR,9R)-7-(cyclopentylmethyl)-N-ethyl-N-methyl-4,6,6a,7,8,9-hexahydroindolo[4,3-fg]quinoline-9-carboxamide]: the Emax at 5-HT2A receptor [1] is 80.1%; on 5-HT1A receptor, 122%; on 5-HT2C receptor it was 21.7%; at 5-HT2B receptor [6], 5.54%. The EC50 is 422 nM at 5-HT2A receptor [1], 84400 nM at 5-HT1A receptor, more than 10000 nM on 5-HT2C receptor and more than 10000 nM on 5-HT2B receptor [6]. In addition, the microsomal CLint was 121 µL/min/mg in “in vitro [2]”, 185 µL/min/mg in “in vitro [3]” and 277 µL/min/mg in the data set “in vitro [4]”. For the same compound, the half-life in “in vitro [2]” stood at 11.4 min; in “in vitro [3]” it was 7.5 min; in the data set “in vitro [4]”, 5 min. For the same compound, the Ki amounted to 11.7 nM on 5-HT2B receptor [5] and 1.6 nM at 5-HT2A receptor [7].
